# Source: patent publication US20240132449A1, “HETEROCYCLIC COMPOUNDS AND METHODS OF USE THEREOF” (1cBio, Inc., priority 2022, published 2024)
# Structures can show the parent of a compound that is named as a salt.
# Tests used:
# [1] = system: MDA-MB-436 cells; test: Colony formation assay; format: cell-based; conditions: Homo sapiens, seeding density 2000-4000 cells/well and treatment time 12-14 days
# Experimental: A colony formation assay was performed to assess the activity of test compounds. MDA-MB-436 cells were harvested, counted and seeded in culture medium (DMEM+10% FBS+1% PS) at a specified density in a volume of 600-1000 μL per well in a 24-well cell culture plate. The plates were incubated overnight at 37° C. in a 5% CO2 incubator. Test compounds were dissolved in DMSO and added to the plate in duplicate wells for each concentration tested. On day 7, the supernatant was removed and 1000 μL of freshly diluted compounds were added to the plates. The plates were returned to incubator to continue incubation. After treatment with the compounds for a specified number of days, e.g. 10-14 days, detection was performed. For detection, the plate was incubated for 20 min after removing the medium and adding fixing solution. Subsequently, the fixing solution was removed and the plates washed with PBS. The plates were then stained with staining solution (0.1% (w/v) crystal violet). After removal of the staining solution, the plates were washed with PBS and scanned on a LICOR imager using the 700 nm channel.
# [2] = system: DLD-1 wild-type colorectal adenocarcinoma cells; test: Cell viability assay (Cell Titer-Glo), DLD-1 wild-type; format: cell-based; conditions: Homo sapiens, DLD-1, 168 h, 7 days incubation; for inhibition at 10 µM: read-out: DLD-1 wild-type % inh at 10 μM; for IC50: 50 cells/well
# How it was run: (§1)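 Isogenic DLD-1 wild-type (50 cells/well) and BRCA2(−/−) (200 cells/well) lines treated after overnight attachment, 7 days at 37 °C, 5% CO2. Ten-point dilutions (e.g. 1.5 nM–30 μM) or single dose; CellTiter-Glo luminescence; IC50 from four-parameter fit, plus % inhibition at 10 μM.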
# [3] = system: DLD-1 BRCA2(−/−) colorectal adenocarcinoma cells; test: Cell viability assay (Cell Titer-Glo), DLD-1 BRCA2(−/−); format: cell-based; conditions: Homo sapiens, DLD-1, 168 h; 7 days incubation, 200 cells/well
# How it was run: as §1
# [4] = molecular target: PARP1 (Homo sapiens, UniProt P09874); test: PARP1 fluorescence polarization binding assay; conditions: binding IC50, GST-tagged PARP1 20 nM, PARPi-FL 3 nM
# How it was run: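 Competitive FP binding: 20 nM GST-tagged PARP1 preincubated with compound 30 min at RT, then 3 nM PARPi-FL probe for 4 h at RT; buffer 50 mM Tris pH 8.0, 10 mM MgCl2, 150 mM NaCl. 10-point 3-fold dilutions; % inhibition from mP versus controls, IC50 by four-parameter fit, reported in ranges.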
# Chain of PARP1 (P09874 whole entry): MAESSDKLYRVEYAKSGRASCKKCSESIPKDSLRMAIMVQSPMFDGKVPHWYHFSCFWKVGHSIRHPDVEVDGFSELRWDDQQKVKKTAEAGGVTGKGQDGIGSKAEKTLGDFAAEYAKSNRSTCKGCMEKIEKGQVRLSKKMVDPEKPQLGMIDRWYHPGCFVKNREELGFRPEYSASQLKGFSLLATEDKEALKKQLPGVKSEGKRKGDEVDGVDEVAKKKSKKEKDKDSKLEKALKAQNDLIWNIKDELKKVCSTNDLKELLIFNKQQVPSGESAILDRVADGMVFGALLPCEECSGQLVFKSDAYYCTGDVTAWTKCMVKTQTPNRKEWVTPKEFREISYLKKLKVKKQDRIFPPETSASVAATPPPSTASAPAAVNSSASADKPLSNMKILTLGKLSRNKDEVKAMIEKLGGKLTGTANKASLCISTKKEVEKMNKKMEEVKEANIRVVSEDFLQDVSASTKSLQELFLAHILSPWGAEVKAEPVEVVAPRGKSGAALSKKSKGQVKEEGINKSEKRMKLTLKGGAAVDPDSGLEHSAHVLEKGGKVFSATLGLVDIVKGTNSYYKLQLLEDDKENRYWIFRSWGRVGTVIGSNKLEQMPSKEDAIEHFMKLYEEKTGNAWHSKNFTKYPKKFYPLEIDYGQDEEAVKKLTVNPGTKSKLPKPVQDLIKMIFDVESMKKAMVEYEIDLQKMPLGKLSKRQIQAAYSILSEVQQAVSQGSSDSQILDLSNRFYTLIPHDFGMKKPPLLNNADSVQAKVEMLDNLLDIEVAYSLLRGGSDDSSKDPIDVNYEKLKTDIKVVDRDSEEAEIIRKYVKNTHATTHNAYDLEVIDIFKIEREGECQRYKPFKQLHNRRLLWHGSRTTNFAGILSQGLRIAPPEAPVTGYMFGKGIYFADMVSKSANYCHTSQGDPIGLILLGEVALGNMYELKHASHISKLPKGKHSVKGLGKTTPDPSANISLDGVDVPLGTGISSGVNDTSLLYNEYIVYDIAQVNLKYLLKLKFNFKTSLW
SMILES,inhibition at 0.3 µM [1] [%],inhibition at 3 µM [1] [%],inhibition at 30 µM [1] [%],inhibition at 10 µM [2] [%],IC50 [2] [µM],IC50 [3] [µM],IC50 [4] [µM]
"CCn1c(=O)[nH]c2cc(CN3CCN(c4ccc(C(=O)NC)nc4)CC3)ccc2c1=O [Compound 3, 5-(4-((3-ethyl-2,4-dioxo-1,2,3,4-tetrahydroquinazolin-7-yl)methyl)piperazin-1-yl)-N-methylpicolinamide formate]",≥ 66.7,≥ 66.7,≥ 66.7,< 33,> 3,0.3 to 3,< 0.1
"CCn1c(=O)[nH]c2cc(CN3CCN(c4ccc(C(=O)NC)nc4C)CC3)ccc2c1=O [Compound 16, 5-{4-[(3-ethyl-2,4-dioxo-1H-quinazolin-7-yl)methyl]piperazin-1-yl}-N,6-dimethylpyridine-2-carboxamide]",≥ 66.7,≥ 66.7,≥ 66.7,< 33,> 3,< 0.3,< 0.1
"CCn1c(=O)[nH]c2cc(CN3CCN(c4ccc(C(=O)NC)nc4C)CC3)ccc2c1=S [Compound 51, 5-(4-((3-ethyl-2-oxo-4-thioxo-1,2,3,4-tetrahydroquinazolin-7-yl)methyl)piperazin-1-yl)-N,6-dimethylpicolinamide formate]",≥ 66.7,≥ 66.7,≥ 66.7,> 67,> 3,< 0.3,< 0.1
"CCn1c(=O)[nH]c2cc(CN3CCN(c4ccc(C(=O)NC)nc4C)CC3)sc2c1=O [Compound 188, 5-(4-((3-ethyl-2,4-dioxo-1,2,3,4-tetrahydrothieno[3,2-d]pyrimidin-6-yl)methyl)piperazin-1-yl)-N,6-dimethylpicolinamide]",≥ 66.7,≥ 66.7,≥ 66.7,< 33,> 3,< 0.3,< 0.1
"CCN1Cc2ccc(CN3CCN(c4ccc(C(=O)NC)nc4)CC3)cc2NC1=O [Compound 196, 5-(4-((3-ethyl-2-oxo-1,2,3,4-tetrahydroquinazolin-7-yl)methyl)piperazin-1-yl)-N-methylpicolinamide formate]",< 33.3,33.3 to 66.7,33.3 to 66.7,< 33,> 3,0.3 to 3,< 0.1
